Laboratory results published in patent publication US7887850B2, “Method for reducing pathogens in the gastrointestinal tract of poultry and other food animals” (Ecolab Inc., priority 2004, dated 2011).

Tested on: broilers
Description: A total of 320 broilers (35 days of age) were randomly allocated to 64 pens (5 birds/pen). […] All solutions were prepared and replaced twice a day, and all birds were given free access to the solutions. Water intake, feed consumption, weight gain, and mortality was monitored during the seven day experimental period.

## O=C(O)CC(O)(CC(=O)O)C(=O)O [citric acid]
broilers, drinking water, seven days, percent by weight
  levels that did not affect live performance: up to 0.4%
Chicken (broilers), in vivo
  differences in mortality during the experiment: No significant (P>0.05) differences
In vivo
  response of daily and 7-day water consumption to graded levels in the water: Linear and quadratic responses
